Measured values as given in patent US20120053119A1, “THERAPEUTIC METHOD FOR INCREASING PANCREATIC BETA CELL MASS” (priority 2009, published 2012).

Key:
[1] = tested on: prohormone convertase PC1/3; assay: PC1/3 expression by QPCR in alphaTC-1 cells; assay type: cell-based; conditions: by one hour after addition of SDF-1, QPCR
Text: FIG. 19. […] Determined by QPCR. High priority experiments planned are to examine PC1/3 protein expression in isolated mouse islets using Western immunoblot, immunocytochemistry, and bioassays for active PC 1/3.

alphaTC-1 cells = assay: GLP-1 production in alphaTC-1 cells, RIA of media; assay type: cell-based
Experimental: FIG. 20. […] Upper panel: AlphaTC-1 and alphaTCdeltaPC2 cells were incubated for 24 hrs and total GLP-1 secreted was measured in the media. Lower panel: AlphaTC-1 cells were treated with SDF-1 or SDF-1+exendin-4 (Exd4) for the times indicated. Media obtained from the cells was assayed with an RIA specific for the active GLP-1. The findings of increased expression of PC1/3 activity, as evidenced by the production of GLP-1. In the absence of PC2 in alphaTCdPC2 cells is consistent with the findings reported by Wideman et al from the Kieffer lab and by Webb et al in the Steiner lab. It appears that in the absence of PC2, PC13 is expressed. The appearance of GLP-1 between 1 and 4 hrs (lower panel) is consistent with the induction of PC1/3 expression shown above in […]. A most high priority in the experiments planned is to determine whether SDF-1 (and cytokines) induce the production of GLP-1 peptide in mouse islets, pending the availability of support required to do these studies.

Question: With “SDF-1: small, secreted 70 amino acid peptide chemokine, SEQ ID NO: 1, ligand of CXCR4” as the substance, how does the PC1/3 expression [1] read?
Answer: induces prohormone convertase PC1/3 expression

Question: What about the “production of processed GLP-1 peptide” value (alphaTC-1 cells) of the same substance?
Answer: induces the production of processed GLP-1 peptide
